In US9328099B2, “Cyanomethylpyrazole carboxamides as janus kinase inhibitors” (Merck Sharp & Dohme Corp., priority 2011, dated 2016):

Tests used:
JAK2 = JAK2 (Homo sapiens (Human), UniProt O60674); assay: Jak Biochemical HTRF Assay, JAK2; conditions: HTRF biochemical assay, GST-tagged catalytic domain; top concentration tested […]
From the text: (§1) Jak Biochemical HTRF Assay Protocol
(§2) Subsequent reagent additions employed an Agilent Bravo.

JAK1 = JAK1 (Homo sapiens (Human), UniProt P23458); assay: Jak Biochemical HTRF Assay, JAK1; conditions: HTRF biochemical assay, GST-tagged catalytic domain; top concentration tested […]; read-out: JAK1 IC50
Sequence of JAK1 (P23458 875-1153): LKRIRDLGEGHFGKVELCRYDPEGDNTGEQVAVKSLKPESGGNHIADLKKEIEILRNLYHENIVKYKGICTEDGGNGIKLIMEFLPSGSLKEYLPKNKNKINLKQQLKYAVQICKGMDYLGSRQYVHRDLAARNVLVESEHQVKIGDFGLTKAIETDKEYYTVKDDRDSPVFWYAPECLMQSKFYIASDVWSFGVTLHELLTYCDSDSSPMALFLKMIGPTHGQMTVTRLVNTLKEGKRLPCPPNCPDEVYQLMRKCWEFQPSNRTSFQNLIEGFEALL
From the text: as §1, §2

Sequence of JAK2 (O60674 849-1124): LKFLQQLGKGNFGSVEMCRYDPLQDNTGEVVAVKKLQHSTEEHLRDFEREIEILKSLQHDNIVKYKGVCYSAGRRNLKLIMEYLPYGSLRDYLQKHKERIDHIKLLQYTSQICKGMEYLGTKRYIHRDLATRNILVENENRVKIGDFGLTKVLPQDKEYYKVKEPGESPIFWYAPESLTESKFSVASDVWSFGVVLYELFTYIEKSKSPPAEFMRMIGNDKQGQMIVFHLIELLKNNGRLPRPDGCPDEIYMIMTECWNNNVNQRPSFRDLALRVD

SMILES	IC50 (JAK2) [nM]	IC50 (JAK1) [nM]
CS(=O)(=O)c1ccc(Nc2nn(C3(CC#N)CCC4(CC3)OCCO4)cc2C(N)=O)cc1 [Example 6-7, 1-[8-(cyanomethyl)-1,4-dioxaspiro[4.5]dec-8-yl]-3-{[4-(methylsulfonyl)phenyl]amino}-1H-pyrazole-4-carboxamide]	206	19
N#CCC1(n2cc(C(N)=O)c(Nc3ccc(F)cc3)n2)CCN(c2ccc(OC(F)F)nc2)CC1 [Example 3-13, 1-{4-(cyanomethyl)-1-[6-(difluoromethoxy)pyridin-3-yl]piperidin-4-yl}-3-[(4-fluorophenyl)amino]-1H-pyrazole-4-carboxamide]	21	0.7
Cc1c(CN2CCC(CC#N)(n3cc(C(N)=O)c(Nc4ccnc(F)c4)n3)CC2)cnn1C [Example 22-40, 1-{4-(cyanomethyl)-1-[(1,5-dimethyl-1H-pyrazol-4-yl)methyl]piperidin-4-yl}-3-[(2-fluoropyridin-4-yl)amino]-1H-pyrazole-4-carboxamide]	582	23
N#CCC1(n2cc(C(N)=O)c(Nc3ccc(F)cc3)n2)CCC(Nc2ccc(Cl)cc2)CC1 (stereo not drawn) [Example 40-53, Cis or trans 1-{4-[(4-chlorophenyl)amino]-1-(cyanomethyl)cyclohexyl}-3-[(4-fluorophenyl)amino]-1H-pyrazole-4-carboxamide]	> 1500	400
N#CCC1(n2cc(C(N)=O)c(Nc3cccc(-c4cc[nH]n4)c3)n2)CCN(C(=O)OCC(F)(F)F)CC1 [Example 10-4, 2,2,2-trifluoroethyl 4-(3-(3-(1H-pyrazol-3-yl)phenylamino)-4-carbamoyl-1H-pyrazol-1-yl)-4-(cyanomethyl)piperidine-1-carboxylate]	29	0.4
N#CCC1(n2cc(C(N)=O)c(Nc3ccnc(F)c3)n2)CCN(Cc2ccc3[nH]ccc3c2)CC1 [Example 22-20, 1-[4-(cyanomethyl)-1-(1H-indol-5-ylmethyl)piperidin-4-yl]-3-[(2-fluoropyridin-4-yl)amino]-1H-pyrazole-4-carboxamide]	31	2

More lines, in order of falling IC50 (JAK2), values ahead:

IC50 (JAK2) [nM]	IC50 (JAK1) [nM]	SMILES
447	30	CCn1ccnc1CN1CCC(CC#N)(n2cc(C(N)=O)c(Nc3ccnc(F)c3)n2)CC1 [Example 22-1, 1-(4-(Cyanomethyl)-1-((1-ethyl-1H-imidazol-2-yl)methyl)piperidin-4-yl)-3-((2-fluoropyridin-4-yl)amino)-1H-pyrazole-4-carboxamide]
191	12	Cc1ccc(NC(=O)N2CC(CC#N)(n3cc(C(N)=O)c(Nc4ccccc4)n3)C2)cc1C [Example 38-4, 1-{3-(cyanomethyl)-1-[(3,4-dimethylphenyl)carbamoyl]azetidin-3-yl}-3-(phenylamino)-1H-pyrazole-4-carboxamide]
139	2	CC(C)[C@@H](O)C(=O)N1CCC(CC#N)(n2cc(C(N)=O)c(Nc3ccnc(F)c3)n2)CC1 [Example 34-46, 1-{4-(cyanomethyl)-1-[(2R)-2-hydroxy-3-methylbutanoyl]piperidin-4-yl}-3-[(2-fluoropyridin-4-yl)amino]-1H-pyrazole-4-carboxamide]
74	4	COCC(C)(C)OC(=O)N1CCC(CC#N)(n2cc(C(N)=O)c(Nc3ccc(F)cc3)n2)CC1 [Example 28, 2-Methoxy-1,1-dimethylethyl 4-{4-carbamoyl-3-[(4-fluorophenyl)amino]-1H-pyrazol-1-yl}-4-(cyanomethyl)piperidine-1-carboxylate]
37	1	N#CCC1(n2cc(C(N)=O)c(Nc3ccc(F)cc3)n2)CCN(C(=O)OCC2CC2)CC1 [Example 30-19, cyclopropylmethyl 4-{4-carbamoyl-3-[(4-fluorophenyl)amino]-1H-pyrazol-1-yl}-4-(cyanomethyl)piperidine-1-carboxylate]
